This note sets out measurements from patent US6538107B1, “G protein coupled receptor protein production, and use thereof” (Takeda Chemical Industries, Ltd., priority 1994, dated 2003).

This assay relates to oocytes injected with H2O. In words: Electrophysiological measurement in control Xenopus oocytes injected with H2O instead of pMAH2-17 cRNA. Type of assay: cell-based. The conditions noted are these: ATP stimulation, initial membrane potential −60 mV.

In the case of `Nc1ncnc2c1ncn2[C@@H]1O[C@H](COP(=O)(O)OP(=O)(O)OP(=O)(O)O)[C@@H](O)[C@H]1O` [ATP, Adenosine triphosphate], the “inward currents (current changes of the membrane) evoked by ATP” value is reported as “such a current was not observed”.
